# Measured values as given in PubChem BioAssay (NCI).
#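 Protocol summary: plate cells (96-well), add compound at 5 concentrations, incubate 48 h, interpolate endpoints linearly. TGI: total growth inhibition.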
# What was measured:
# Test in all cases: DTP human tumour cell line panel, 48 h
# HCC-2998 colon = tested on: HCC-2998 colon
# OVCAR-5 ovarian = tested on: OVCAR-5 ovarian
# SN12C renal = tested on: SN12C renal
# TK-10 renal = tested on: TK-10 renal
# RPMI-8226 leukemia = tested on: RPMI-8226 leukemia
# OVCAR-8 ovarian = tested on: OVCAR-8 ovarian
# SF-295 CNS = tested on: SF-295 CNS
# A498 renal = tested on: A498 renal
# PC-3 prostate = tested on: PC-3 prostate
# MOLT-4 leukemia = tested on: MOLT-4 leukemia
Compound,TGI (HCC-2998 colon) [µM],TGI (OVCAR-5 ovarian) [µM],TGI (SN12C renal) [µM],TGI (TK-10 renal) [µM],TGI (RPMI-8226 leukemia) [µM],TGI (OVCAR-8 ovarian) [µM],TGI (SF-295 CNS) [µM],TGI (A498 renal) [µM],TGI (PC-3 prostate) [µM],TGI (MOLT-4 leukemia) [µM]
CCOC(=O)c1nc2cc(C(F)(F)F)ccc2nc1Nc1ccc(F)cc1,> 100,> 100,> 100,> 100,61.6,> 100,> 100,> 100,> 100,–
C[C@H](CN1CC(=O)NC(=O)C1)N1CC(=O)NC(=O)C1,> 100,> 100,> 100,–,> 100,> 100,> 100,> 100,–,> 47.5
C=CCCC(On1c(-c2ccc(Cl)cc2)csc1=S)c1ccccc1 (stereo unspecified),–,> 100,> 100,> 100,> 100,> 100,> 100,> 100,> 100,> 100
O=C(Cc1ccccc1)N=Nc1c(O)[nH]c2ccccc12,> 100,> 100,> 100,> 100,–,> 100,> 100,80.4,> 100,> 100
Cc1cc(C)c2c(=N)c3ccccc3n(CCCCCCn3c4ccccc4c(=N)c4c(C)cc(C)nc43)c2n1,0.323,3.49,2.88,3.19,–,3.14,2.85,3.12,2.81,–
CC(C)N1CCC2(CC1)NNc1ncccc1-n1cccc12,> 100,> 100,> 100,> 100,> 100,> 100,> 100,–,–,> 100
COc1cc(/C=C2\N=C(C)N(n3c(-c4ccccc4)nc4ccccc4c3=O)C2=O)cc(OC)c1OC,> 100,–,> 100,> 100,> 100,> 100,> 100,> 100,> 100,> 100
Cc1cc2c(cc1-c1cc3c(cc1C)C(C(C)C)=C(O)C(=O)/C3=C\Nc1c(C)n(C)n(-c3ccccc3)c1=O)/C(=C/Nc1c(C)n(C)n(-c3ccccc3)c1=O)C(=O)C(O)=C2C(C)C,–,> 100,> 100,–,> 100,> 100,> 100,> 100,> 100,> 100
CN1CCN(/C(N)=C(\C#N)C(=O)Nc2ccccc2)CC1,> 100,> 100,> 100,–,> 100,> 100,> 100,> 100,> 100,> 100
N#CCSc1c(-c2ccccc2)c(=O)n(-c2ccccc2)c(=S)n1-c1ccccc1,–,> 100,> 100,> 100,> 100,> 100,> 100,–,> 100,> 100
COc1c(-c2cccs2)oc2c(CC(=O)O)cccc2c1=O,> 100,> 100,> 100,> 100,5.92,–,> 100,> 100,> 100,> 100
CC(=O)Nc1ccc(-c2nnc(SCC(=O)Nc3cccc([N+](=O)[O-])c3)o2)cc1,–,50.2,33.2,67.5,75.8,33.4,32,–,–,> 100
Cc1oncc1NC1=CC(=O)C(=O)c2ccccc21,33.4,26.5,17.1,45.2,–,11.9,20.6,17.9,10,11.9
CC(C)(C)c1cc(/C=C/C(=O)CC(=O)/C=C/c2cc(C(C)(C)C)c(O)c(C(C)(C)C)c2)cc(C(C)(C)C)c1O,–,> 50,> 50,> 50,> 50,> 50,> 50,–,> 50,–
Nc1nn(CC(O)CO)c(=O)s1 (stereo unspecified),> 100,> 100,> 100,> 100,> 100,> 100,> 100,> 100,–,> 100
CCCCCCCCCCCCCCCCCCOc1ccc(/C=C/C2=[N+](CCCl)CCO2)cc1,–,> 100,> 100,> 100,> 100,> 100,> 100,> 100,> 100,> 100
Clc1ccc2nc(CC3CCCC3)[nH]c2c1,41.8,67.5,36.8,70.2,50.3,> 100,34.7,–,71,35
COc1cc2c(cc1OC(=O)c1cc3ccccc3[nH]1)N=C[C@@H]1CCCN1C2=O,1.12,0.59,0.513,13.8,1.95,–,4.48,0.599,6.93,0.553
COc1ccc(/C=N\NC(=O)Nc2cccc3ccccc23)cc1,> 100,> 100,> 100,43.9,> 100,–,–,51.6,> 100,–
NC(=O)CCC(NC(=O)c1cccc2c(=O)c3ccccc3[nH]c12)C(=O)O (stereo unspecified),–,> 100,> 100,> 100,> 100,> 100,> 100,> 100,> 100,> 100
O=C1C2=C(CCCCC2)C2CCCCC12O (stereo unspecified),> 100,–,> 100,> 100,> 100,> 100,> 100,–,–,> 100
COc1cc2cc3c4c(cc(OC)c(OC)c4c2cc1OC)CCN3C(=O)N(C)C,> 100,> 100,> 100,> 10,> 100,> 100,> 100,> 100,–,> 100
O=c1oc2c/c(=C\c3ccccc3)c(=O)c3cccc1c3-2,> 100,> 100,> 100,> 100,88.1,43.1,> 100,> 100,> 100,–
COc1ccc(/C(Cl)=C(\C=O)c2ccccc2)cc1OC,> 100,> 100,> 100,> 100,–,> 100,55.1,–,–,> 100
